pIC50: −log10 of the molar value. Like-named read-outs stand apart in the source and are kept apart here.
Tests used:
Format in all cases: cell-based
[1] = test system: Poly/Mono-ADP Ribose in U2OS cells; test: PAR in cell western assay (parylation) in U2OS cells; details: Homo sapiens, read-out: Parylation (U2OS)
Experimental: U2OS cells are seeded at 2667 cells per well in 24 ul medium into poly-D lysine-coated 384 well plate and incubated in the TC incubator for O/N
The next day, test comps are diluted in a source plate and 6 μL of the diluted comp is added to the cell plate; mixed well and incubated for 6 hrs. DNA damage is induced with 2 mM H2O2 for 10 min. After discarding the medium, cells are fixed in ice cold Methanol at for 20 min at −20C. After a wash step at room temperature, cells are permeabilized with 0.05% NP-40 in PBS for 10 min, followed by wash steps. Cells are blocked with 1% BSA, at room temperature for 1 hr. Cells are stained with anti mono/polyADP ribose antibody (E6F6A, Cell signaling, 1:5000) in 1×PBS/1% BSA/0.05% Tween o/n at 4C.
Next Day, cells are washed and incubated with anti-Rabbit 800CV (Licor antibody, 1:500) and CellTag 700 (Licor, 1:800) in 1×PBS/1% BSA/0.05% Tween for 1 h. After washing, plates are scanned using LICOR and are quantified.
Parylation inhibition is reported as % control inhibition.
(§1) The letter codes for the PARP1-enzyme assay include: A (<1 nM), B (>1-10 nM), C (>10-100 nM), D (>100-1000 nM), E (>1000 nM), and “-” is not tested. The letter codes for the PARP trapping assay, and parylation assay include: A (<10 nM), B (>10-100 nM), C (>100-1000 nM), […], E (>10000 nM), and “-” is not tested.

A2780 cells = test: Cell proliferation assay (A2780); details: Homo sapiens, 168 h, 7 days
Experimental: (§2) Cells are counted, diluted to desired density and 40 μL of cell suspension is added into each 384-well tissue-culture treated plates. Plates are incubated in Tissue Culture incubator at 37° C./5% C02 overnight.
(§3) Next day, 40 nl test compounds that are prepared from source plates are transferred to the seeded cells from overnight. Plates are incubated at 37° C./5% C02 for a total of 7 days. After 7-day incubation, plates are equilibrated to room temperature and 30 ul of Cell Counting-Lite is added to each well for a 30 min incubation followed by reading on EnVision.
(§4) The letter codes for the cell proliferation assay in A2780, HCC1806, and MDA-MB-436 cells include: A (<10 nM), B (>10-100 nM), C (>100-1000 nM), D (>1000-10000 nM), E (>10000 nM), and “-” is not tested.

HCC1806 cells = test: Cell proliferation assay (HCC1806); details: Homo sapiens, 168 h, 7 days
Experimental: as §2, §3, §4

MDA-MB-436 cells = test: Cell proliferation assay (MDA-MB-436); details: Homo sapiens, 168 h, 7 days
Experimental: as §2, §3, §4

PARP1 = PARP1 (Homo sapiens, UniProt P09874); test: PARP trapping assay in U2OS cells; design: endogenous in cells; host or cells: U2OS; details: U2OS cells, MMS, 4 hrs; read-out: PARP Trapping (U2OS)
Sequence of PARP1 (P09874 whole entry): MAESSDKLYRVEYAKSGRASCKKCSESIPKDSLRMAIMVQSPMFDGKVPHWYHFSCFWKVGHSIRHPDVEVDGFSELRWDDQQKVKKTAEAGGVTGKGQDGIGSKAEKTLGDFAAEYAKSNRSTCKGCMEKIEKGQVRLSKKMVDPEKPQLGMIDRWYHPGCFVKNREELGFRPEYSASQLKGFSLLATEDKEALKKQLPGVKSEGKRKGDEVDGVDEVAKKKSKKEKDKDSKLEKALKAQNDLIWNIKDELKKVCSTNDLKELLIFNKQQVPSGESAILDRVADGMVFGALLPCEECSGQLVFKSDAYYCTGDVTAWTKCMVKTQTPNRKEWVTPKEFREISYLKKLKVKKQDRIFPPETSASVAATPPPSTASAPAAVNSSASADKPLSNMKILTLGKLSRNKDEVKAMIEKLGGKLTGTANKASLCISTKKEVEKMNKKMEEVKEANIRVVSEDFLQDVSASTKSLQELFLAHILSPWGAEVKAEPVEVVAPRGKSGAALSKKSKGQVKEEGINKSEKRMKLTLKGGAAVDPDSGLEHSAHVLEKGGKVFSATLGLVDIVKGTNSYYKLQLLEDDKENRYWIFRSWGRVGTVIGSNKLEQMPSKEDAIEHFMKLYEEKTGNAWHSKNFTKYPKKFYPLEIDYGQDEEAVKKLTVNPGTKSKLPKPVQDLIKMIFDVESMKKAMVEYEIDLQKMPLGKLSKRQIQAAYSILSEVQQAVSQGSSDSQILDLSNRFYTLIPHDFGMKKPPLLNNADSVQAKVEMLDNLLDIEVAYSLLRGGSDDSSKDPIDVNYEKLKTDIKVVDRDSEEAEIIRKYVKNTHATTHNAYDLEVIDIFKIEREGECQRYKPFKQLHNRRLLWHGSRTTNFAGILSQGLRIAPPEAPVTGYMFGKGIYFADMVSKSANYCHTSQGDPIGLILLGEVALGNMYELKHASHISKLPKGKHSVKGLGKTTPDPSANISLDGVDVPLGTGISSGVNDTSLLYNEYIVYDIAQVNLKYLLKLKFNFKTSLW
Experimental: U2OS cells are seeded at 15,000 cells/well in 90 ul medium and incubated in the TC incubator for overnight.
Next day, test compounds are prepared in a source plate along with addition of DNA damage reagent MMS simultaneously and 10 ul of the diluted mixture is added to the cell plate and incubated for 4 hrs under T/C conditions.
After 4 hrs, following aspiration and washing, add 100 ul of cold cytoskeleton removal buffer (0.5% Triton X-100) and incubated for 10 min. At the end of incubation, slowly the buffer is removed, and cells are fixed with ice cold MeOH for 15 min at −20C. Followed by wash steps, cells are blocked with 1×PBS/3% BSA/0.05% Tween for 1 h at room temperature.
Cells are stained with anti PARP1 antibody (abeam ab227244, 1:1000), in 1×PBS/1% BSA overnight at 4C.
Wash and add DAPI, scan cells in Celigo.
Data Analysis: DAPI staining is used to segment nuclei and AF488 fluorescence intensity per nucleus is measured.
as §1

pIC50 ([1]; U2OS cells, 6 hrs, 2 mM H2O2) | pIC50 (A2780 cells) | pIC50 (HCC1806 cells) | pIC50 (MDA-MB-436 cells) | pIC50 (PARP1) | pIC50 ([1]; U2OS, 6 h) | Structure (SMILES)
7.00 to 8.00 | 7.00 to 8.00 | 7.00 to 8.00 | > 8.00 | 6.00 to 7.00 |  | CCc1cccc(-c2cnc(C(=O)NCCOCCNCC(=O)N3CCN(C(=O)c4cc(Cc5n[nH]c(=O)c6ccccc56)ccc4F)CC3)c(N)c2)c1 [Compound I-402]
7.00 to 8.00 | 7.00 to 8.00 | 7.00 to 8.00 | > 8.00 | 7.00 to 8.00 |  | CCc1cccc(-c2cnc(C(=O)NC34CCC(CN5CCN(CC(=O)N6CCN(C(=O)c7cc(Cc8n[nH]c(=O)c9ccccc89)ccc7F)CC6)CC5)(CC3)OC4)c(NC(C)=O)c2)c1 [Compound I-469]
6.00 to 7.00 | 7.00 to 8.00 | 7.00 to 8.00 | > 8.00 | 7.00 to 8.00 |  | CCc1cccc(-c2cnc(C(=O)NC34CCC(CN5CCN(CC(=O)N6CCN(C(=O)c7cc(Cc8n[nH]c(=O)c9ccccc89)ccc7F)CC6)CC5)(CC3)OC4)c(N)c2)c1 [Compound I-470]
7.00 to 8.00 | 7.00 to 8.00 | 6.00 to 7.00 | > 8.00 | 6.00 to 7.00 |  | CCc1cccc(-c2cnc(C(=O)NCCOCCNCC(=O)N3CCN(C(=O)c4cc(Cc5n[nH]c(=O)c6ccccc56)ccc4F)CC3)c(C)c2)c1 [Compound I-489]
7.00 to 8.00 | 7.00 to 8.00 | 6.00 to 7.00 | > 8.00 | 6.00 to 7.00 |  | CC(C)(F)C(=O)N1CCCC(c2cccc(C(=O)N[C@@H](C(=O)N3CCN(CC4CCN(CC(=O)N5CCN(C(=O)c6cc(Cc7n[nH]c(=O)c8ccccc78)ccc6F)CC5)CC4)CC3)C3CCCCC3)c2)C1 (some centres unmarked) [Compound I-528]
> 8.00 | > 8.00 | 7.00 to 8.00 | > 8.00 | 7.00 to 8.00 |  | CCc1cccc(-c2cc(F)c(C(=O)N3CCC(OC4CCN(CC(=O)N5CCN(C(=O)c6cc(Cc7n[nH]c(=O)c8ccccc78)ccc6F)CC5)CC4)CC3)c(F)c2)c1 [Compound I-590]
> 8.00 | > 8.00 | 7.00 to 8.00 | > 8.00 | 7.00 to 8.00 |  | O=C(CN1CCN(CC2CCN(C(=O)c3c(F)cc(-c4ccccc4)cc3F)CC2)CC1)N1CCN(C(=O)c2cc(Cc3n[nH]c(=O)c4ccccc34)ccc2F)CC1 [Compound I-635]
7.00 to 8.00 | 6.00 to 7.00 | 7.00 to 8.00 | > 8.00 | 7.00 to 8.00 |  | CCc1cccc(-c2cc(F)c(C(=O)N3CC4CCC3CC4CN3CCN(CC(=O)N4CCN(C(=O)c5cc(Cc6n[nH]c(=O)c7ccccc67)ccc5F)CC4)CC3)c(F)c2)c1 (centres unmarked) [Compound I-690]
> 8.00 | 6.00 to 7.00 | 6.00 to 7.00 | > 8.00 | 7.00 to 8.00 |  | O=C(CN1CCN(CC2CCN(C(=O)c3c(F)cc(-c4cnccn4)cc3F)CC2)CC1)N1CCN(C(=O)c2cc(Cc3n[nH]c(=O)c4ccccc34)ccc2F)CC1 [Compound I-739]
7.00 to 8.00 | 7.00 to 8.00 | 7.00 to 8.00 | > 8.00 | 7.00 to 8.00 |  | CC1(OC(=O)N[C@@H](C(=O)N2CCC(OC3CCN(CC(=O)N4CCN(C(=O)c5cc(Cc6n[nH]c(=O)c7ccccc67)ccc5F)CC4)CC3)CC2)C2CCCCC2)CCC1 [Compound I-749]
7.00 to 8.00 | 7.00 to 8.00 | 7.00 to 8.00 | > 8.00 | 7.00 to 8.00 |  | O=C(N[C@@H](C(=O)N1CCC(OC2CCN(CC(=O)N3CCN(C(=O)c4cc(Cc5n[nH]c(=O)c6ccccc56)ccc4F)CC3)CC2)CC1)C1CCCCC1)c1cccc(C2CCCN(C(=O)C34CC(F)(C3)C4)C2)c1F (some centres unmarked) [Compound I-750]
7.00 to 8.00 | 6.00 to 7.00 | 6.00 to 7.00 | > 8.00 | 7.00 to 8.00 |  | O=C(CN1CCN(CC2CCN(C(=O)c3c(F)cc(-c4ccncn4)cc3F)CC2)CC1)N1CCN(C(=O)c2cc(Cc3n[nH]c(=O)c4ccccc34)ccc2F)CC1 [Compound I-768]
> 8.00 | 7.00 to 8.00 | 7.00 to 8.00 | > 8.00 | > 8.00 |  | O=C(CN1CCN(CC2CCN(C(=O)c3c(F)cc(-c4ccccn4)cc3F)CC2)CC1)N1CCN(C(=O)c2cc(Cc3n[nH]c(=O)c4ccccc34)ccc2F)CC1 [Compound I-769]
> 8.00 | 6.00 to 7.00 | 6.00 to 7.00 | > 8.00 | 7.00 to 8.00 |  | O=C(CN1CCC(OC2CCN(C(=O)c3c(F)cc(-c4cccnn4)cc3F)CC2)CC1)N1CCN(C(=O)c2cc(Cc3n[nH]c(=O)c4ccccc34)ccc2F)CC1 [Compound I-771]
7.00 to 8.00 | 6.00 to 7.00 | 6.00 to 7.00 | > 8.00 | > 8.00 |  | O=C(CN1CCC(OC2CCN(C(=O)c3c(F)cc(-c4ccnnc4)cc3F)CC2)CC1)N1CCN(C(=O)c2cc(Cc3n[nH]c(=O)c4ccccc34)ccc2F)CC1 [Compound I-772]
6.00 to 7.00 | 6.00 to 7.00 | 6.00 to 7.00 | > 8.00 | 7.00 to 8.00 |  | CCc1cccc(-c2cnc(C(=O)NC34CCC(CN5CCN(CC(=O)N6CCN(C(=O)c7cc(Cc8n[nH]c(=O)c9ccccc89)ccc7F)CC6)CC5)(CC3)OC4)c(NC(=O)OC(C)(C)C)c2)c1 [Compound I-800]
7.00 to 8.00 | 7.00 to 8.00 | 6.00 to 7.00 | > 8.00 | 6.00 to 7.00 |  | CC(C)(C)OC(=O)Nc1cc(-c2cccc(C3COC3)c2)cnc1C(=O)NCCOCCNCC(=O)N1CCN(C(=O)c2cc(Cc3n[nH]c(=O)c4ccccc34)ccc2F)CC1 [Compound I-803]
7.00 to 8.00 | 7.00 to 8.00 | 6.00 to 7.00 | > 8.00 | 6.00 to 7.00 |  | CC(C)(C)OC(=O)Nc1cc(-c2cccc(C#N)c2)cnc1C(=O)NCCOCCNCC(=O)N1CCN(C(=O)c2cc(Cc3n[nH]c(=O)c4ccccc34)ccc2F)CC1 [Compound I-818]
7.00 to 8.00 | 7.00 to 8.00 | 7.00 to 8.00 | > 8.00 | 7.00 to 8.00 |  | CC(C)(C)OC(=O)N1CCCC(c2cccc(Oc3cnnc(N4CCC(OC5CCN(CC(=O)N6CCN(C(=O)c7cc(Cc8n[nH]c(=O)c9ccccc89)ccc7F)CC6)CC5)CC4)c3)c2)C1 (centres unmarked) [Compound I-870]
7.00 to 8.00 | 6.00 to 7.00 | 6.00 to 7.00 | > 8.00 | 7.00 to 8.00 |  | CC(C)(C)OC(=O)N[C@@H](C(=O)N1CCC(C)(OC2CCN(CC(=O)N3CCN(C(=O)c4cc(Cc5n[nH]c(=O)c6ccccc56)ccc4F)CC3)CC2)CC1)C1CCCCC1 [Compound I-871]
6.00 to 7.00 | 6.00 to 7.00 | 6.00 to 7.00 | > 8.00 | 6.00 to 7.00 |  | CC(C)(C)OC(=O)N[C@@H](C(=O)N1CC[C@H](OC2CCN(CC(=O)N3CCN(C(=O)c4cc(Cc5n[nH]c(=O)c6ccccc56)ccc4F)CC3)CC2)C1)C1CCCCC1 [Compound I-875]
6.00 to 7.00 | 7.00 to 8.00 | 7.00 to 8.00 | > 8.00 |  |  | CC(C)(C)C(=O)N1CCC[C@@](F)(c2cccc(C(=O)N[C@@H](C(=O)N3CCC(OC4CCN(CC(=O)N5CCN(C(=O)c6cc(Cc7n[nH]c(=O)c8ccccc78)ccc6F)CC5)CC4)CC3)C3CCCCC3)c2F)C1 [Compound I-994]
 | 5.00 to 6.00 | 5.00 to 6.00 | 7.00 to 8.00 |  | > 8.00 | O=C(c1cc(Cc2n[nH]c(=O)c3ccccc23)ccc1F)N1CCN(C(=O)C2CC2)CC1 [Olaparib, reference compound]
